7 molecules from patent US20240335462A1, “SULFUR/PHOSPHORUS-CONTAINING ARYL COMPOUND AND APPLICATION THEREOF” (MEDSHINE DISCOVERY INC., priority 2021, published 2024) can be followed below.

The target in one assay is TYK2 JH2 pseudokinase (Homo sapiens, UniProt P29597). The assay is described as follows: Inhibitory activity on TYK2 JH2 pseudokinase (TR-FRET). Type of assay: binding. Conditions: 60 min room temperature, read-out: Kinase half maximal inhibitory concentration IC50 TYK2 JH2. Here is the method:
In this experiment, the inhibitory effect of compounds on TYK2 JH2 pseudokinase was tested using the method of time-resolved fluorescence resonance energy transfer (TR-FRET). In the experiment, TYK2 JH2 or JAK1 JH2 pseudokinase can simultaneously bind to fluorescently labeled Tracer and Tb antibody to form a “sandwich structure”. Tb antibody, functioning as a fluorescent donor, produces fluorescence at a wavelength of 495 nm under the excitation of light at a specific wavelength. Tracer, functioning as a fluorescent acceptor, can receive fluorescence at a wavelength of 495 nm and thus produce fluorescence at a wavelength of 520 nm, i.e., a time-resolved fluorescence resonance energy transfer (TR-FRET) signal, only when it is within the “sandwich structure”, i.e., when it is sufficiently close to Tb antibody. When the compound is added to compete with Tracer for binding to the pseudokinase, the binding of Tracer decreases, leading to a weakened TR-FRET signal. The inhibitory activity of the compound binding to the pseudokinase can be reflected by the ratio of signal values at 520 nm/495 nm.
The working solution consists of the following components: HEPES (pH 7.5) at a final concentration of 20 mM; MgCl2 at a final concentration of 10 mM; Brij-35 at a final concentration of 0.015%; DTT at a final concentration of 2 mM; and BSA at a final concentration of 50 μg/mL.
• a) The compound was dissolved in DMSO to achieve a storage concentration of 10 mM. • b) Various concentrations of the compound, 200 times the final concentration, were prepared in a compound dilution plate and transferred to an Echo plate. • c) The Echo instrument was used to transfer 150 nL of the compound from the Echo plate to a 384-well experimental plate. • d) 5 μL of TYK2 JH2 kinase, at three times the final concentration, was added to the 384-well experimental plate. • e) 5 μL of Tb, at three times the final concentration, was added to the 384-well experimental plate. • f) 5 μL of Tracer, at three times the final concentration, was added to the 384-well experimental plate. • g) The plate was centrifuged for 30 seconds and then incubated at room temperature for 60 minutes. • h) The fluorescence signal values at 520 nm/495 nm were measured using an Envision plate reader (PerkinElmer).
Data analysis was performed using the XL-Fit software to determine the IC50 of the compounds.
(In general: In TR-FRET formats the signal depends on donor and acceptor labels being close together.)

Assay [1] deals with Ba/F3-FL-TYK2-E957D cells (Homo sapiens, UniProt P29597, E957D, cells depend on it). The assay is described as follows: Proliferation of Ba/F3-FL-TYK2-E957D cells (CellTiter-Glo). Type of assay: cell-based, mouse. Conditions: 72 hours, read-out: Half maximal inhibitory concentration IC50 for cells Ba/F3-FL-TYK2-E957D. In short, it runs like this:
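Ba/F3 cells stably expressing human full-length TYK2-E957D (JH1+JH2) or TEL-TYK2 (JH1 only) were plated at 2000 cells/well with 9-point 3-fold compound dilutions (0.1% DMSO) for 72 h at 37° C. Viable cells were measured by CellTiter-Glo luminescence; IC50 came from nonlinear S-curve fits.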

TYK2 JH2 pseudokinase, sequence (P29597 589-875 limits assumed): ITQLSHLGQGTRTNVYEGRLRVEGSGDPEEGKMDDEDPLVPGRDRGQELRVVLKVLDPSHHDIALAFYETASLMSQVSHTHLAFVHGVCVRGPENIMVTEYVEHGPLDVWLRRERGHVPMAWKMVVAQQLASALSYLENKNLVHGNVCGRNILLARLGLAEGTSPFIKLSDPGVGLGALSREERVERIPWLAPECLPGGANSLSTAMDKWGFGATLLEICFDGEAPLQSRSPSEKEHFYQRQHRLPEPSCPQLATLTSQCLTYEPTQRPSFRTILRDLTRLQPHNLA
Ba/F3-FL-TYK2-E957D cells, sequence (P29597 whole entry E957D): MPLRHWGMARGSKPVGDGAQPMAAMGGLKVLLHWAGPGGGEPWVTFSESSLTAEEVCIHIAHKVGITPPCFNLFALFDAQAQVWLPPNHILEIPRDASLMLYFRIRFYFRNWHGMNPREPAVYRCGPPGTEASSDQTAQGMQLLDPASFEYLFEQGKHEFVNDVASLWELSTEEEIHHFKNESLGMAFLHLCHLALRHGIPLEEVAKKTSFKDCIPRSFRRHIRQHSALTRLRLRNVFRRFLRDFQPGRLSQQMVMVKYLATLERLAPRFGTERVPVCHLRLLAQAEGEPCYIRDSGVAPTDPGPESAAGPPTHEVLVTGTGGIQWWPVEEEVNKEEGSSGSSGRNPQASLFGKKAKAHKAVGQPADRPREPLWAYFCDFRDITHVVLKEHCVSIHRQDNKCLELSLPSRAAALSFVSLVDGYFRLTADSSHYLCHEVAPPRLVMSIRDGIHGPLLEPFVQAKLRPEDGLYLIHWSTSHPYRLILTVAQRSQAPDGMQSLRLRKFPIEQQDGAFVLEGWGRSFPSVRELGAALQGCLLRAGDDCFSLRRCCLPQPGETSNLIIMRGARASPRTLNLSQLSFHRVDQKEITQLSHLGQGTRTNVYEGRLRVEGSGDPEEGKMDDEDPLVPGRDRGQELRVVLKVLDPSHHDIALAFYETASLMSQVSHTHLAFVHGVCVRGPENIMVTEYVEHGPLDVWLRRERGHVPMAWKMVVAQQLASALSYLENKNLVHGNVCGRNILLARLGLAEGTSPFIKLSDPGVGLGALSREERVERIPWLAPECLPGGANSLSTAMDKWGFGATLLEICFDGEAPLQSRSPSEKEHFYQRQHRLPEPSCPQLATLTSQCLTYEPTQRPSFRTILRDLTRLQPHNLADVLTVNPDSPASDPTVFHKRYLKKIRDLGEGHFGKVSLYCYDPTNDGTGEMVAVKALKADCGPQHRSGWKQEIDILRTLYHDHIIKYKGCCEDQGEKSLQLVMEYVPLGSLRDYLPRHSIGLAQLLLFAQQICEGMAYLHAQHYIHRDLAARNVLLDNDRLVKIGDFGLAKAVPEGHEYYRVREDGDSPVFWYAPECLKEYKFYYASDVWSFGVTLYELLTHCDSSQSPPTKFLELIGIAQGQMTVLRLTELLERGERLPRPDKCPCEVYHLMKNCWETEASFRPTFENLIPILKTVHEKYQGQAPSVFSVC

Regarding `CNC(=O)c1nnc(NC(=O)C2CC2)cc1Nc1cccc(-c2ncc(S(=N)(=O)C(C)C)cn2)c1OC` (single isomer, unassigned) [WX-011A], on TYK2 JH2 pseudokinase, the IC50 stood at 100 pM. Further, the GI50 in assay [1] was determined as 5300 pM.

For the molecule `CNC(=O)c1cnc(NC(=O)C2CC2)cc1Nc1cccc(-c2ncc(S(=O)(=O)C(C)C)cn2)c1OC` [WX-019], the IC50 on TYK2 JH2 pseudokinase was 90 pM. The GI50 in assay [1] was 2000 pM.

On to `CNC(=O)c1nnc(NC(=O)C2CC2)cc1Nc1cccc(-c2ccc(P(=O)(C3CC3)C3CC3)cn2)c1OC` [WX-021], for which the IC50 on TYK2 JH2 pseudokinase stood at 80 pM. In addition, the GI50 in assay [1] was determined as 2500 pM.

Regarding `CNC(=O)c1nnc(NC(=O)C2CC2)cc1Nc1cccc(-c2ncc(S(=N)(=O)C(C)C)cn2)c1OC` (single isomer, unassigned) [WX-011B], the IC50 on TYK2 JH2 pseudokinase stood at 80 pM. In addition, the GI50 in assay [1] worked out at 3300 pM.

Consider `CNC(=O)c1nnc(NC(=O)C2CC2)cc1Nc1cccc(-c2ccc(S(=N)(=O)C(C)C)cn2)c1OC` (single isomer, unassigned) [WX-012A], for which the IC50 on TYK2 JH2 pseudokinase came to 80 pM. Also, in assay [1], the GI50 stood at 3300 pM.

Consider `CNC(=O)c1cnc(NC(=O)C2CC2)cc1Nc1cccc(-c2ccc(S(=O)(=O)C(C)C)cn2)c1OC.Cl` [Hydrochloride of WX-020], for which the IC50 at TYK2 JH2 pseudokinase came out at 80 pM. Also, in assay [1], the GI50 was determined as 1500 pM.

Consider `CNC(=O)c1nnc(NC(=O)C2CC2)cc1Nc1cccc(-c2ccc(S(=N)(=O)C(C)C)cn2)c1OC` (single isomer, unassigned) [WX-012B], for which the IC50 at TYK2 JH2 pseudokinase came to 80 pM. Further, in assay [1], the GI50 stood at 2400 pM.
